Assay: xn = mol fraction of the nth substance listed
Conditions: for surface tension liquid-gas: Capillary rise; for viscosity / mass density: 100.8 kPa, Liquid; for viscosity: Falling or rolling sphere viscometry; for mass density: Vibrating tube method

CC(=O)OCc1ccccc1 [benzyl ethanoate] + CCO
Conditions | mass density [kg/m3] | surface tension liquid-gas [mN/m] | viscosity [mPa·s]
293.15 K, x2 = 0 | 1055.81 | 37.3 | 2.324
293.15 K, x2 = 0.0502 | 1050.61 | 36.3 | 2.18
293.15 K, x2 = 0.1 | 1044.89 | 35.4 | 2.063
293.15 K, x2 = 0.1498 | 1038.77 | 34.4 | 1.962
293.15 K, x2 = 0.1998 | 1032.15 | 33.4 | 1.879
293.15 K, x2 = 0.2499 | 1025.14 | 32.5 | 1.808
293.15 K, x2 = 0.2998 | 1017.51 | 31.6 | 1.736
293.15 K, x2 = 0.35 | 1009.27 | 30.8 | 1.672
293.15 K, x2 = 0.4 | 1000.55 | 30 | 1.613
293.15 K, x2 = 0.4501 | 991.15 | 29.3 | 1.551
293.15 K, x2 = 0.5 | 980.94 | 28.6 | 1.49
293.15 K, x2 = 0.5499 | 969.73 | 27.9 | 1.439
293.15 K, x2 = 0.6 | 957.31 | 27.2 | 1.392
293.15 K, x2 = 0.65 | 943.77 | 26.7 | 1.347
293.15 K, x2 = 0.7 | 928.69 | 26.2 | 1.305
293.15 K, x2 = 0.7499 | 912.06 | 25.8 | 1.267
293.15 K, x2 = 0.7999 | 893.44 | 25.2 | 1.232
293.15 K, x2 = 0.85 | 872.42 | 24.5 | 1.202
293.15 K, x2 = 0.9 | 848.54 | 23.8 | 1.188
293.15 K, x2 = 0.95 | 821.38 | 23.1 | 1.178
303.15 K, x2 = 0 | 1046.74 | 35.6 | 1.836
303.15 K, x2 = 0.0502 | 1041.18 | 34.8 | 1.75
303.15 K, x2 = 0.1 | 1035.33 | 34 | 1.663
303.15 K, x2 = 0.1498 | 1029.09 | 33.2 | 1.595
303.15 K, x2 = 0.1998 | 1022.42 | 32.4 | 1.534
303.15 K, x2 = 0.2499 | 1015.3 | 31.6 | 1.477
303.15 K, x2 = 0.2998 | 1007.78 | 30.8 | 1.42
303.15 K, x2 = 0.35 | 999.68 | 30 | 1.375
303.15 K, x2 = 0.4 | 990.86 | 29.2 | 1.327
303.15 K, x2 = 0.4501 | 981.38 | 28.5 | 1.281
303.15 K, x2 = 0.5 | 971.11 | 27.8 | 1.233
303.15 K, x2 = 0.5499 | 959.94 | 27.1 | 1.194
303.15 K, x2 = 0.6 | 947.61 | 26.4 | 1.151
303.15 K, x2 = 0.65 | 933.97 | 25.8 | 1.115
303.15 K, x2 = 0.7 | 919.03 | 25.2 | 1.077
303.15 K, x2 = 0.7499 | 902.5 | 24.8 | 1.038
303.15 K, x2 = 0.7999 | 883.9 | 24.2 | 1.009
303.15 K, x2 = 0.85 | 863.07 | 23.6 | 0.989
303.15 K, x2 = 0.9 | 839.36 | 22.9 | 0.982
303.15 K, x2 = 0.95 | 812.21 | 22.2 | 0.975
313.15 K, x2 = 0 | 1037.42 | 34.3 | 1.474
313.15 K, x2 = 0.0502 | 1031.85 | 33.6 | 1.413
313.15 K, x2 = 0.1 | 1025.96 | 32.8 | 1.362
313.15 K, x2 = 0.1498 | 1019.7 | 32 | 1.308
313.15 K, x2 = 0.1998 | 1012.98 | 31.3 | 1.265
313.15 K, x2 = 0.2499 | 1005.82 | 30.5 | 1.226
313.15 K, x2 = 0.2998 | 998.2 | 29.8 | 1.181
313.15 K, x2 = 0.35 | 989.97 | 29.1 | 1.143
313.15 K, x2 = 0.4 | 981.2 | 28.4 | 1.101
313.15 K, x2 = 0.4501 | 971.7 | 27.7 | 1.067
313.15 K, x2 = 0.5 | 961.42 | 27 | 1.029
313.15 K, x2 = 0.5499 | 950.19 | 26.4 | 0.999
313.15 K, x2 = 0.6 | 937.83 | 25.8 | 0.964
313.15 K, x2 = 0.65 | 924.36 | 25.2 | 0.93
313.15 K, x2 = 0.7 | 909.51 | 24.6 | 0.891
313.15 K, x2 = 0.7499 | 893.04 | 24 | 0.867
313.15 K, x2 = 0.7999 | 874.6 | 23.4 | 0.841
313.15 K, x2 = 0.85 | 853.75 | 22.8 | 0.823
313.15 K, x2 = 0.9 | 830.17 | 22.1 | 0.812
313.15 K, x2 = 0.95 | 803.27 | 21.4 | 0.808
323.15 K, x2 = 0 | 1027.51 | 33.2 | 1.256
323.15 K, x2 = 0.0502 | 1021.88 | 32.5 | 1.22
323.15 K, x2 = 0.1 | 1015.97 | 31.8 | 1.187
323.15 K, x2 = 0.1498 | 1009.69 | 31.1 | 1.154
323.15 K, x2 = 0.1998 | 1002.94 | 30.4 | 1.12
323.15 K, x2 = 0.2499 | 995.85 | 29.6 | 1.086
323.15 K, x2 = 0.2998 | 988.26 | 28.9 | 1.05
323.15 K, x2 = 0.35 | 980.03 | 28.2 | 1.015
323.15 K, x2 = 0.4 | 971.24 | 27.5 | 0.979
323.15 K, x2 = 0.4501 | 961.72 | 26.7 | 0.943
323.15 K, x2 = 0.5 | 951.49 | 26 | 0.911
323.15 K, x2 = 0.5499 | 940.31 | 25.3 | 0.882
323.15 K, x2 = 0.6 | 927.98 | 24.7 | 0.853
323.15 K, x2 = 0.65 | 914.58 | 24.1 | 0.825
323.15 K, x2 = 0.7 | 899.72 | 23.5 | 0.795
323.15 K, x2 = 0.7499 | 883.26 | 22.9 | 0.77
323.15 K, x2 = 0.7999 | 864.86 | 22.3 | 0.743
323.15 K, x2 = 0.85 | 844.15 | 21.7 | 0.723
323.15 K, x2 = 0.9 | 820.71 | 21 | 0.704
323.15 K, x2 = 0.95 | 794.02 | 20.3 | 0.692
